The results in this text go back to ChEMBL document CHEMBL5137023, “Discovery of 2H-benzo[b][1,4]oxazin-3(4H)-one derivatives as potent and selective CDK9 inhibitors that enable transient target engagement for the treatment of hematologic malignancies” (Eur J Med Chem, 2022).

One may read the IC50 as the concentration needed to halve the response being measured. One may read the half-life as how long it takes for the measured level to halve. The low end stands for fast loss, the high end for slow loss. Broadly, the MRT last is a mean duration of stay, worked out from the concentration-time curve. Usually MRT inf stands for a mean duration of stay, worked out from the concentration-time curve. What is called AUC(0-t) is exposure summed from dosing to a finite time, without extrapolation to infinity. Read a high AUC(0-t) as more exposure. The term AUC(0-inf) denotes the area under the concentration-time curve extrapolated to infinity. High values mean more exposure, low ones less exposure. For orientation: clearance means the rate of elimination divided by the concentration. As usually defined, the inhibition is the relative decrease from the control value, in per cent.

For one series, the target named is CDK9/cyclin T1 (Homo sapiens, UniProt P50750). The series can be described thus: Inhibition of CDK9/Cyclin T1 (unknown origin) preincubated for 10 mins followed by ATP and CTD3 addition and measured after 30 mins by mobility shift assay. The format is protein-complex assay.
Sequence of CDK9/cyclin T1 (O60563 whole entry): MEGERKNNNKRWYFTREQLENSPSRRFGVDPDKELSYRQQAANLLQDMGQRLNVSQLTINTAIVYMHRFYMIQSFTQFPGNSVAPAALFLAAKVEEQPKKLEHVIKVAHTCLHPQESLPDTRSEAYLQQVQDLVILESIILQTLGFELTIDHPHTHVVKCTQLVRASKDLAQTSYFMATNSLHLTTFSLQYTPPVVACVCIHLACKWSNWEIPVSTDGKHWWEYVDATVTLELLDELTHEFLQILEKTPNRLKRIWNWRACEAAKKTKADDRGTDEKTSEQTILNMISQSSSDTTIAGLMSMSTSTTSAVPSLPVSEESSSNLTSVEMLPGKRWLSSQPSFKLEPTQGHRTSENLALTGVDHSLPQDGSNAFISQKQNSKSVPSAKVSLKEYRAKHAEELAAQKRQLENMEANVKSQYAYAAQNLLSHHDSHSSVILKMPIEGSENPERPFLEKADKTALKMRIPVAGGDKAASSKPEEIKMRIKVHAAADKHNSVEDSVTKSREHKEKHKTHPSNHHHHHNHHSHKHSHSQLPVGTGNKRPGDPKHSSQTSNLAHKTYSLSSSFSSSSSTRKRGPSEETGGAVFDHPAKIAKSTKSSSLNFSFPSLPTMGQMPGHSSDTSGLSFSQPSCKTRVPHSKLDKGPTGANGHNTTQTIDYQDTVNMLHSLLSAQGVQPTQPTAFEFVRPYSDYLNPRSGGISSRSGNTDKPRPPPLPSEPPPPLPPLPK
Sequence of CDK9/cyclin T1 (P50750 whole entry): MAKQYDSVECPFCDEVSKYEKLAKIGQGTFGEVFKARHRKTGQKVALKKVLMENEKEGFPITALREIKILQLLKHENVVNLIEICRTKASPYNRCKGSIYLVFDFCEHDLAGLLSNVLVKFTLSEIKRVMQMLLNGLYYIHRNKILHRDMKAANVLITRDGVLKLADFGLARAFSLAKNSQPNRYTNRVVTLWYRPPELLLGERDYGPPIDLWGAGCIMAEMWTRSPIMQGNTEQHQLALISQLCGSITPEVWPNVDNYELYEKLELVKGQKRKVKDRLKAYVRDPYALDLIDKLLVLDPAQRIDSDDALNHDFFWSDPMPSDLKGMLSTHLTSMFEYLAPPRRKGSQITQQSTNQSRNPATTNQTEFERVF
Series [1] has as its system MV4-11. The series can be described thus: Antiproliferative activity against human MV4-11 cells assessed as inhibition of cell growth incubated for 72 hrs by CTG- luminescence assay. The format is functional, cell-based. As to conditions: MV4-11, 72 h.
Series [2] is described as follows: Kinetic solubility of the compound in pH 7.4 PBS buffer incubated for 24 hrs under shaking condition by HPLC analysis. The format is physicochemical. As to conditions: read-out: Kinetic_solubility.
A short description of series [3]: Initial plasma concentration in Sprague-Dawley rat at 1 mg/kg, iv bolus injection measured upto 24 hrs by LC-MS/MS analysis. The format is ADME, organism-based.
A short description of series [4]: Elimination rate constant in Sprague-Dawley rat at 1 mg/kg, iv bolus injection measured upto 24 hrs by LC-MS/MS analysis. The format is ADME, organism-based. To be noted: in vivo.
Series [5] is described as follows: Half life in Sprague-Dawley rat at 1 mg/kg, iv bolus injection measured upto 24 hrs by LC-MS/MS analysis. The format is ADME, organism-based. To be noted: in vivo.
Series [6] is described as follows: MRT(0 to t) in Sprague-Dawley rat at 1 mg/kg, iv bolus injection measured upto 24 hrs by LC-MS/MS analysis. The format is ADME, organism-based. To be noted: in vivo.
Series [7] can be described thus: MRT(0 to infinity) in Sprague-Dawley rat at 1 mg/kg, iv bolus injection measured upto 24 hrs by LC-MS/MS analysis. The format is ADME, organism-based. As to conditions: in vivo.
The nature of series [8]: AUC(0 to t) in Sprague-Dawley rat at 1 mg/kg, iv bolus injection measured upto 24 hrs by LC-MS/MS analysis. As to conditions: in vivo. Also noted: dose 1 mg/kg, time < 24 hrs, route iv. The format is ADME, organism-based.
Series [9] is described as follows: AUC(0 to infinity) in Sprague-Dawley rat at 1 mg/kg, iv bolus injection measured upto 24 hrs by LC-MS/MS analysis. The format is ADME, organism-based. Also noted: time < 24 hrs, dose 1 mg/kg, route iv. As to conditions: in vivo.
The nature of series [10]: Clearance in Sprague-Dawley rat at 1 mg/kg, iv bolus injection measured upto 24 hrs by LC-MS/MS analysis. The format is ADME, organism-based. To be noted: in vivo.
Series [11] is described as follows: Volume of distribution at steady state in Sprague-Dawley rat at 1 mg/kg, iv bolus injection measured upto 24 hrs by LC-MS/MS analysis. The format is ADME, organism-based. To be noted: in vivo, read-out: Vdss.
In series [12] the test system is MV4-11. The series can be described thus: Antiproliferative activity against human MV4-11 cells assessed as inhibition of cell growth at 0.37 uM incubated for 72 hrs by CTG- luminescence assay relative to control. The format is functional.
Series [13] deals with MV4-11. Briefly: Downregulation of Mcl-1 expression in human MV4-11 cells at 1 uM incubated for 24 hrs by Western blot analysis. The format is functional, cell-based. In general terms: A western blot detects proteins with antibodies after separation by electrophoresis.
For series [14], the system named is MV4-11. Briefly: Downregulation of c-Myc expression in human MV4-11 cells at 1 uM incubated for 24 hrs by Western blot analysis. The format is functional, cell-based.
Series [15] deals with MV4-11. Briefly: Inhibition of RNA polymerase 2 phosphorylation at Ser2 residue in human MV4-11 cells at 1 uM incubated for 24 hrs by Western blot analysis. The format is cell-based.

Converted amounts (≈) assume the structure as drawn. The source made the active and inactive calls. The rule behind the calls is not given here.

For `CCN1C(=O)COc2c(CN3CCOCC3)cc(Nc3nccc(-c4ccc(F)cc4OC)n3)cc21`, the IC50 at CDK9/cyclin T1 came out at 2.6 nM; with MV4-11 [1], 228 nM.

Consider `CCN1C(=O)COc2c(CN3CCN(S(C)(=O)=O)CC3)cc(Nc3ncc(F)c(-c4ccc(F)cc4OC)n3)cc21`, for which the IC50 at CDK9/cyclin T1 worked out at 3 nM; with MV4-11 [1], 15 nM. Further, the solubility kinetic at 24 h in series [2] came to 30.5 µg/mL (≈ 51.8 µM). This compound also showed a C0 at 24 h in series [3] of 1060 ng/mL. The compound also showed a k el at 24 h in series [4] of 0.000728 s⁻¹. Also, the half-life in series [5] is 15.9 min. For the same compound, the MRT last at 24 h in series [6] was 14.4 min. Moreover, the mean residence time (MRT inf) in [7] worked out at 14.8 min. The same compound displayed an AUC(0-t) at 24 h in series [8] of 245 ng·h/mL. In series [9], this compound displayed an AUC(0-inf) of 246 ng·h/mL. For the same compound, the clearance in series [10] amounted to 68.1 mL/min/kg. In addition, the Vd in series [11] worked out at 1.01 L/kg.

For `CCN1C(=O)COc2c(CN3CCOCC3)cc(Nc3nccc(-c4ccc5nnn(C(C)C)c5c4)n3)cc21`, the IC50 at CDK9/cyclin T1 came to 13 nM; in the series with MV4-11 [1], 184 nM.

Regarding `CCN1C(=O)COc2c(CN3CCOCC3)cc(Nc3cc(-c4ccc(F)cc4OC)c(F)cn3)cc21`, the half-maximal inhibitory concentration (IC50) at CDK9/cyclin T1 is 42 nM.

With `CCN1C(=O)COc2c(CN3CCC(N(C)C)C3)cc(Nc3ncc(F)c(-c4ccc(F)cc4OC)n3)cc21` (centres undefined), the IC50 came out at 3.7 nM at CDK9/cyclin T1 and 124 nM with MV4-11 [1].

On to `CCN1C(=O)COc2c(CN3CCOCC3)cc(Nc3ncc(F)c(-c4ccc(F)cc4OC)n3)cc21`, for which the IC50 came to 1.1 nM on CDK9/cyclin T1 and 105 nM in the series with MV4-11 [1].

For the compound `CCN1C(=O)COc2c(CN3CCOCC3)cc(Nc3nccc(-c4cccnc4)n3)cc21`, the IC50 at CDK9/cyclin T1 is 6.7 nM; with MV4-11 [1], 306 nM.

Regarding `CCN1C(=O)COc2c(CN3CCOCC3)cc(Nc3nccc(-c4ccc(F)cc4OCc4ccccc4)n3)cc21`, the IC50 at CDK9/cyclin T1 is greater than 100 nM.

Take `CCN1C(=O)COc2c(CN3CCSCC3)cc(Nc3ncc(F)c(-c4ccc(F)cc4OC)n3)cc21`: the figures for the IC50 at CDK9/cyclin T1 and in the series with MV4-11 [1] were 3.6 nM and 130 nM, respectively.

Turning to `CCN1C(=O)COc2c(CN3CCC(N4CCOCC4)CC3)cc(Nc3ncc(F)c(-c4ccc(F)cc4OC)n3)cc21`, the figures for the IC50 on CDK9/cyclin T1 and with MV4-11 [1] were 2.1 nM and 109 nM, respectively.

Regarding `CCN1C(=O)COc2c(CN3CCOCC3)cc(Nc3nccc(-c4cn(C)c5ccccc45)n3)cc21`, the IC50 at CDK9/cyclin T1 was determined as 39 nM.

As for `CCN1C(=O)COc2c(CN3CCOCC3)cc(Nc3nccc(-c4ccc5nn(C)c(C(C)C)c5c4)n3)cc21`, at CDK9/cyclin T1, the IC50 amounted to 21 nM.

Regarding `CCN1C(=O)COc2c(CN3CCN(C4COC4)CC3)cc(Nc3ncc(F)c(-c4ccc(F)cc4OC)n3)cc21`, the values for the IC50 at CDK9/cyclin T1 and in the series on MV4-11 [1] were 1.6 nM and 105 nM, respectively.

For the compound `CCN1C(=O)COc2c(CN3CCOC[C@H]3C)cc(Nc3ncc(F)c(-c4ccc(F)cc4OC)n3)cc21`, the IC50 at CDK9/cyclin T1 was determined as 1.9 nM; in the series on MV4-11 [1], 364 nM.

Consider `CCN1CCN(Cc2cc(Nc3ncc(F)c(-c4ccc(F)cc4OC)n3)cc3c2OCC(=O)N3CC)CC1`, for which the IC50 came to 4.4 nM on CDK9/cyclin T1 and 142 nM in the series with MV4-11 [1].

For `CCN1C(=O)COc2c(CN3CCCCC3)cc(Nc3ncc(F)c(-c4ccc(F)cc4OC)n3)cc21`, the results for the 50% inhibitory concentration (IC50) at CDK9/cyclin T1 and in the series with MV4-11 [1] were 2.7 nM and 50 nM, respectively.

Take `CCN1C(=O)COc2c(CN(C)CCOC)cc(Nc3ncc(F)c(-c4ccc(F)cc4OC)n3)cc21`: the figures for the IC50 at CDK9/cyclin T1 and with MV4-11 [1] were 2.3 nM and 65 nM, respectively.

With `CCN1C(=O)COc2c(CN3CCS(=O)(=O)CC3)cc(Nc3ncc(F)c(-c4ccc(F)cc4OC)n3)cc21`, the IC50 on CDK9/cyclin T1 came to 6 nM. In the series with MV4-11 [12], the inhibition at 0.37 µM turned out to be 15%.

`CCN1C(=O)COc2c(CN3CCN(C)CC3)cc(Nc3ncc(F)c(-c4ccc(F)cc4OC)n3)cc21`: the values for the IC50 on CDK9/cyclin T1 and in the series on MV4-11 [1] were 5.4 nM and 253 nM, respectively.

In the case of `CCN1C(=O)COc2c(CN3CCN(C(C)C)CC3)cc(Nc3ncc(F)c(-c4ccc(F)cc4OC)n3)cc21`, the IC50 on CDK9/cyclin T1 was 3.4 nM; in the series on MV4-11 [1], 149 nM.

Consider `CCN1C(=O)COc2c(CN(C)CCNC)cc(Nc3ncc(F)c(-c4ccc(F)cc4OC)n3)cc21`, for which the concentration for half-maximal inhibition (IC50) on CDK9/cyclin T1 turned out to be 2.5 nM; in the series with MV4-11 [1] it was 89 nM.

Regarding `CCN1C(=O)COc2c(CN(C)CCN(C)C)cc(Nc3ncc(F)c(-c4ccc(F)cc4OC)n3)cc21`, the results for the IC50 at CDK9/cyclin T1 and in the series on MV4-11 [1] were 2.2 nM and 143 nM, respectively.

Take `CN1CC[C@H](c2c(O)cc(O)c3c(=O)cc(-c4ccccc4Cl)oc23)[C@H](O)C1`: the outcome in the series on MV4-11 [13] and in the series on MV4-11 [14] was Active. In the series on MV4-11 [15], the inhibition result was “Active”.

As for `CCN1C(=O)COc2c(CN3CCOCC3)cc(Nc3nccc(-c4ccc5nc(C)n(C(C)C)c5c4)n3)cc21`, on CDK9/cyclin T1, the IC50 is 23 nM.

Consider `CCN1C(=O)COc2c(CN3CCOCC3)cc(Nc3cc(-c4ccc(F)cc4OC)c(Cl)cn3)cc21`, for which, at CDK9/cyclin T1, the IC50 was 80 nM.

Consider `CCN1C(=O)COc2c(CN3CCNCC3)cc(Nc3ncc(F)c(-c4ccc(F)cc4OC)n3)cc21`, for which the IC50 on CDK9/cyclin T1 amounted to 4.2 nM; in the series on MV4-11 [1], 128 nM.

`CCN(CC)Cc1cc(Nc2ncc(F)c(-c3ccc(F)cc3OC)n2)cc2c1OCC(=O)N2CC`: the IC50 at CDK9/cyclin T1 amounted to 2.6 nM; in the series with MV4-11 [1] it was 26 nM. The solubility kinetic at 24 h in series [2] came to 3.9 µg/mL (≈ 7.84 µM). In series [3], the C0 at 24 h came out at 155 ng/mL. Besides, the k el at 24 h in [4] is 0.0004 s⁻¹. In [5], the half-life is 29.8 min. This compound came in with an MRT last at 24 h in series [6] of 36.7 min. This compound also gave an MRT inf in series [7] of 41.3 min. The same compound came in with an AUC(0-t) at 24 h in [8] of 107 ng·h/mL. For the same compound, in [9], the area under the curve AUC(0-inf) was determined as 111 ng·h/mL. In series [10], the clearance stood at 168 mL/min/kg. The Vd in series [11] was 6.45 L/kg.
